Source: patent US10508104B2, “6-hydroxy-5-(phenyl/heteroarylsulfonyl)pyrimidin-4(1H)-one as APJ agonists” (Bristol-Myers Squibb Company, priority 2016, dated 2019)

What follows are compounds tested against human APJ receptor (Homo sapiens (Human), UniProt P35414) (assay: Intracellular cAMP accumulation assay (APJ hcAMP, HTRF)). Settings: HEK293 cells stably expressing human APJ receptor; inhibition of forskolin-mediated cAMP production; read-out: Human APJ cAMP EC50 Potency range.
Assay type: cell-based
Summary of the method: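 HEK293 cells stably expressing human APJ, 5,000 per well, incubated 30 min at rt with compound, […] and 2 μM forskolin. cAMP measured by HTRF against a cAMP standard curve as inhibition of forskolin-driven production. EC50 from variable-slope sigmoidal fit.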

human APJ receptor, sequence (P35414 whole entry): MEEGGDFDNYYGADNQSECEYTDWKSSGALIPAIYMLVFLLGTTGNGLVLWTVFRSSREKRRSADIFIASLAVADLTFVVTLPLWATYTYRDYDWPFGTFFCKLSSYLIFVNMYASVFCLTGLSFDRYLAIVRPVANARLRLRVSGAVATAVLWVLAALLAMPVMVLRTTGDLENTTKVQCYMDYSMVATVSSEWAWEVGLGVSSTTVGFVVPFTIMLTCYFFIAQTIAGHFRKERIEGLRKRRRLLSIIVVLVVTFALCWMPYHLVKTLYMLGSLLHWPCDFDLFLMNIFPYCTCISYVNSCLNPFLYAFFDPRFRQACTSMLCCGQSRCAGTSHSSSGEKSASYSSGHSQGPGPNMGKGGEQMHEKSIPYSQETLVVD

EC50, 0.01 to 10 nM:
CCCCc1nc(=O)c(S(=O)(=O)c2ccc(-c3ccnc(F)c3C)cc2)c(O)n1[C@@H](CC)c1cccc(C#N)n1 [Example 549, 6-[(1S)-1-{2-butyl-5-[4-(2-fluoro-3-methylpyridin-4-yI)benzenesulfonyl]-6-hydroxy-4-oxo-1,4-dihydropyrimidin-1-yl}propyl]pyridine-2-carbonitrile]
CCCCc1nc(=O)c(S(=O)(=O)c2ccc(-c3ccncc3C)cc2)c(O)n1[C@@H](CC)c1cccc(C#N)n1 [Example 550, 6-[(1S)-1-{2-butyl-6-hydroxy-5-[4-(3-methylpyridin-4-yl)benzenesulfonyl]-4-oxo-1,4-dihydropyrimidin-1-yl}propyl]pyridine-2-carbonitrile]
CCCCc1nc(=O)c(S(=O)(=O)c2ccc(-c3ccccc3C(=O)NC)cc2)c(O)n1[C@@H](CC)c1cccc(C#N)n1 [Example 551, 4′-({2-butyl-1-[(1S)-1-(6-cyanopyridin-2-yl)propyl]-6-hydroxy-4-oxo-1,4-dihydropyrimidin-5-yl}sulfonyl)-N-methyl-[1,1′-biphenyl]-2-carboxamide]
CCCCc1nc(=O)c(S(=O)(=O)c2ccc(-c3cccc(C(=O)NC)c3)cc2)c(O)n1[C@@H](CC)c1cccc(C#N)n1 [Example 552, 4′-({2-butyl-1-[(1S)-1-(6-cyanopyridin-2-yl)propyl]-6-hydroxy-4-oxo-1,4-dihydropyrimidin-5-yl}sulfonyl)-N-methyl-[1,1′-biphenyl]-3-carboxamide]
CCCCc1nc(=O)c(S(=O)(=O)[C@H]2CC[C@H](O)CC2)c(O)n1-c1c(CC)cccc1CC [Example 553, 2-butyl-1-(2,6-diethylphenyl)-6-hydroxy-5-{[(1r,4r)-4-hydroxycyclohexyl]sulfonyl}-1,4-dihydropyrimidin-4-one]
CCCCc1nc(=O)c(S(=O)(=O)[C@H]2CC[C@@H](O)CC2)c(O)n1-c1c(CC)cccc1CC [Example 554, 2-butyl-1-(2,6-diethylphenyl)-6-hydroxy-5-{[(1s,4s)-4-hydroxycyclohexyl]sulfonyl}-1,4-dihydropyrimidin-4-one]
CCCCc1nc(=O)c(S(=O)(=O)[C@H]2CC[C@@H](O)CC2)c(O)n1-c1c(OC)cccc1OC [Example 555, 2-butyl-1-(2,6-dimethoxyphenyl)-6-hydroxy-5-{[(1s,4s)-4-hydroxycyclohexyl]sulfonyl}-1,4-dihydropyrimidin-4-one]
CCCCc1nc(=O)c(S(=O)(=O)[C@H]2CC[C@H](O)CC2)c(O)n1-c1c(OC)cccc1OC [Example 556, 2-butyl-1-(2,6-dimethoxyphenyl)-6-hydroxy-5-{[(1r,4r)-4-hydroxycyclohexyl]sulfonyl}-1,4-dihydropyrimidin-4-one]
